Laboratory results taken from PubChem BioAssay (NCI).
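Cultured in 96-well plates, cells were exposed to test compound for 48 hours across five concentrations. GI50 is the concentration that inhibits growth by half. At the TGI there is no net growth.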

Legend:
Experiment in all cases: DTP human tumour cell line panel, 48 h
[1] = system: 786-0 renal
[2] = system: A498 renal
[3] = system: A549 NSCLC
[4] = system: ACHN renal
[5] = system: BT-549 breast
[6] = system: CAKI-1 renal
[7] = system: CCRF-CEM leukemia
[8] = system: COLO 205 colon
[9] = system: DU-145 prostate
[10] = system: EKVX NSCLC
[11] = system: HCC-2998 colon
[12] = system: HCT-116 colon
[13] = system: HCT-15 colon
[14] = system: HL-60(TB) leukemia
[15] = system: HOP-62 NSCLC
[16] = system: HOP-92 NSCLC
[17] = system: HS 578T breast
[18] = system: HT29 colon
[19] = system: IGROV1 ovarian
[20] = system: K-562 leukemia
[21] = system: KM12 colon
[22] = system: LOX IMVI melanoma
[23] = system: M14 melanoma
[24] = system: MALME-3M melanoma
[25] = system: MCF7 breast
[26] = system: MDA-MB-231 breast
[27] = system: MDA-MB-435
[28] = system: MDA-MB-468 breast
[29] = system: MOLT-4 leukemia
[30] = system: NCI-H226 lung
[31] = system: NCI-H23 lung
[32] = system: NCI-H460 lung
[33] = system: NCI-H522 lung
[34] = system: NCI/ADR-RES ovarian
[35] = system: OVCAR-3 ovarian
[36] = system: OVCAR-4 ovarian
[37] = system: OVCAR-5 ovarian
[38] = system: OVCAR-8 ovarian
[39] = system: PC-3 prostate
[40] = system: RPMI-8226 leukemia
[41] = system: RXF 393 renal
[42] = system: SF-268 CNS
[43] = system: SF-295 CNS
[44] = system: SF-539 CNS
[45] = system: SK-MEL-2 melanoma
[46] = system: SK-MEL-28 melanoma
[47] = system: SK-MEL-5 melanoma
[48] = system: SK-OV-3 ovarian
[49] = system: SN12C renal
[50] = system: SNB-19 CNS
[51] = system: SNB-75 CNS
[52] = system: SR leukemia
[53] = system: SW-620 colon
[54] = system: T-47D breast
[55] = system: TK-10 renal
[56] = system: U251 CNS
[57] = system: UACC-257 melanoma
[58] = system: UACC-62 melanoma
[59] = system: UO-31 renal

`O=C(Cn1c(-c2ccccc2)nc2ccccc21)N=Nc1c(O)[nH]c2ccc(Br)cc12` was tested, and the GI50 [1] was 17.5 µM, the TGI [1] was 34.7 µM and the GI50 [2] was 16 µM. For the same compound, the TGI [2] was 31.1 µM, the GI50 [3] was 14.7 µM and the TGI [3] was 34.8 µM. It also gave a GI50 [4] of 15.6 µM, a TGI [4] of 34.1 µM and a GI50 [5] of 16 µM. It also gave a TGI [5] of 36.9 µM, a GI50 [6] of 11.8 µM and a TGI [6] of 25.7 µM. The GI50 [7] was 34.8 µM, the TGI [7] was > 100 µM and the GI50 [8] was 18.9 µM. It also gave a TGI [8] of 46.2 µM, a GI50 [9] of 19.6 µM and a TGI [9] of 42.3 µM. The GI50 [10] was 11.3 µM, the TGI [10] was 34.1 µM and the GI50 [11] was 14.8 µM. It also gave a TGI [11] of 31.3 µM, a GI50 [12] of 18.2 µM and a TGI [12] of 45.8 µM. It also gave a GI50 [13] of 12 µM, a TGI [13] of 38.9 µM and a GI50 [14] of 25.5 µM. For the same compound, the TGI [14] was > 100 µM, the GI50 [15] was 14.6 µM and the TGI [15] was 33 µM. It also gave a GI50 [16] of 15.4 µM, a TGI [16] of 34.2 µM and a GI50 [17] of 14.9 µM. For the same compound, the TGI [17] was 47.3 µM, the GI50 [18] was 14.3 µM and the TGI [18] was 30.4 µM. The GI50 [19] was 12 µM, the TGI [19] was 29.7 µM and the GI50 [20] was 9.48 µM. The TGI [20] was > 100 µM, the GI50 [21] was 14.8 µM and the TGI [21] was 52.9 µM. The GI50 [22] was 15 µM, the TGI [22] was 31.7 µM and the GI50 [23] was 18.8 µM. It also gave a TGI [23] of 52.3 µM, a GI50 [24] of 12.3 µM and a TGI [24] of 27.1 µM. For the same compound, the GI50 [25] was 5.87 µM, the TGI [25] was 25.6 µM and the GI50 [26] was 12 µM. It also gave a TGI [26] of 27.9 µM, a GI50 [27] of 5.9 µM and a TGI [27] of 21.3 µM. It also gave a GI50 [28] of 2.54 µM, a TGI [28] of 9.55 µM and a GI50 [29] of 17.6 µM. The TGI [29] was > 100 µM, the GI50 [30] was 11.1 µM and the TGI [30] was 28.3 µM. It also gave a GI50 [31] of 16.3 µM, a TGI [31] of 36.5 µM and a GI50 [32] of 16.8 µM. It also gave a TGI [32] of 35 µM, a GI50 [33] of 7.31 µM and a TGI [33] of 22.4 µM. For the same compound, the GI50 [34] was 15.4 µM, the TGI [34] was 33.8 µM and the GI50 [35] was 14.3 µM. The TGI [35] was 30.3 µM, the GI50 [36] was 15.9 µM and the TGI [36] was 36.5 µM. For the same compound, the GI50 [37] was 22.9 µM, the TGI [37] was 81.4 µM and the GI50 [38] was 14.4 µM. For the same compound, the TGI [38] was 31.1 µM, the GI50 [39] was 15 µM and the TGI [39] was 43.2 µM. The GI50 [40] was 35.6 µM, the TGI [40] was > 100 µM and the GI50 [41] was 10.3 µM. It also gave a TGI [41] of 23.9 µM, a GI50 [42] of 16.2 µM and a TGI [42] of 38.3 µM. The GI50 [43] was 12.7 µM, the TGI [43] was 28 µM and the GI50 [44] was 14.4 µM. The TGI [44] was 29.7 µM, the GI50 [45] was 17 µM and the TGI [45] was 42.9 µM. For the same compound, the GI50 [46] was 17.8 µM, the TGI [46] was 36.7 µM and the GI50 [47] was 13.9 µM. The TGI [47] was 30.9 µM, the GI50 [48] was 16.6 µM and the TGI [48] was 38.4 µM. For the same compound, the GI50 [49] was 16.2 µM, the TGI [49] was 41.8 µM and the GI50 [50] was 17.3 µM. The TGI [50] was 40.8 µM, the GI50 [51] was 9.46 µM and the TGI [51] was 23.6 µM. For the same compound, the GI50 [52] was 6.04 µM, the TGI [52] was > 100 µM and the GI50 [53] was 18.1 µM. The TGI [53] was 52.9 µM, the GI50 [54] was 11.5 µM and the TGI [54] was 33.8 µM. It also gave a GI50 [55] of 21 µM, a TGI [55] of 40.3 µM and a GI50 [56] of 16.2 µM. It also gave a TGI [56] of 31.7 µM, a GI50 [57] of 15.2 µM and a TGI [57] of 31.7 µM. The GI50 [58] was 12.1 µM, the TGI [58] was 25.9 µM and the GI50 [59] was 10 µM. For the same compound, the TGI [59] was 26.8 µM.
